Assay results: patent US4143055A, “2,4,6-Trisubstituted-2,3-dihydro-benzofuran derivatives” (Gruppo Lepetit S.p.A., priority 1978, dated 1979)

Columns and labels:
[1] = tested on: adjuvant induced arthritis; assay: Adjuvant induced arthritis test in rats; assay type: in vivo; settings: for % reduction of the volume of the hind paws over the controls: rats p.o., Dose 200 mg/kg
From the text: However, the most important pharmacological aspect of the compounds of the present invention is that they are effective also in the adjuvant induced arthritis test in rats. Said test is absolutely meaningful in that adjuvant arthritis is one of the best pharmacological parameters with which a pharmacologist can investigate compounds as to their possible antinflammatory activity, owing to the parallelism of effects existing between it and some articulation diseases observed in humans (see Pearson, C. M., Arthritis and allied conditions, page 119, Lea and Febiger Publ., 1967 and Pearson, C. M., J. Chronic Diseases, 16, 863, 1963).
The adjuvant induced arthritis test was performed as described by B. B. Newbould in Brit. Jour. Pharmacol., 21, 127, (1963). The measure of effectiveness of the compounds in this test is given by their ability in reducing the volume of the hind paws of the laboratory animals. […] The obtained results, which are summarized in the following table, were obtained by testing the compounds at a dosage corresponding to 1/5 of their LD50.

[2] = Acute oral toxicity in rats (LD50, Lichtfield and Wilcoxon); settings: rat, in vivo, rats p.o. (table)
Description: The toxicities were determined according to Lichtfield and Wilcoxon, Journ. Pharm. Expt. Ther., 96, 99, 1949.

[3] = tested on: granuloma formed on a cotton pellet implanted subcutaneously; assay: Granuloma cotton pellet test; assay type: in vivo; settings: rat; same dosage, around 1/5 of its LD50
Description: (§1) The antiinflammatory activity was ascertained by means of several testing methods; in one, the ability of the compounds of the invention to reduce the edema induced in the rat paw by injection of carrageenin was evaluated and the test was performed according to the methodology described by C. A. Winter et al. in Proc. Soc. Exptl. Biol. Med. 111, 544, (1962). In another it was investigated the reduction by the test compounds of the weight of the granuloma formed on a cotton pellet implanted subcutaneously in a rat, following the method described by Meier et al. in Experientia 6, 469, (1950).
(§2) Representative experiments have shown that the compounds of Example 11, namely 2,3-dihydro-6-methoxy-N,2-dimethyl-4-benzofuranamine causes a reduction of the carrageenin induced edema of around 70 percent over the controls even when it is administered at an absolutely safe dosage i.e., around 1/5 of its LD50. In the granuloma cotton pellet test the same compound at the same dosage reduces the weight of the granuloma of more than 40 percent again over the controls.

[4] = tested on: carrageenin induced edema; assay: Carrageenin induced edema in the rat paw; assay type: in vivo; settings: dosage around 1/5 of its LD50
Description: as §1, §2

Compound	% reduction of the volume of the hind paws over the controls [1] [%]	LD50 [2] [mg/kg]	activity in the adjuvant induced arthritis test compared with acetylsalicylic acid ([1]; rats, dosage corresponding to 1/5 of their LD50)	reduction of the weight of the granuloma over the controls [3]	reduction of the carrageenin induced edema over the controls [4]
CC(=O)Oc1ccccc1C(=O)O [acetylsalicylic acid, reference compound]	25	–	–	–	–
CNc1cc(OC)cc2c1CC(C)O2 (stereo not drawn) [Example 11, 2,3-dihydro-6-methoxy-N,2-dimethyl-4-benzofuranamine]	36	2800	significantly more active	more than 40%	around 70%
